Source: patent US20240165029A1, “ASSISTED LOADING OF HYDROPHOBIC MOLECULES INTO LIPOSOMES” (UNIVERSITY OF CONNECTICUT, priority 2021, published 2024)
Entries after “also recorded” stand apart in the source; their conditions may differ. Values belong to the compound of their own block, whether it stands above or below them.

Legend:
mBCO2 [1] = target: T1, mBCO2 (Mus musculus, UniProt Q99NF1); conditions: HEK293F cells, earlier work [34]; cited from earlier work
T1 construct: expressed in transfected cells; host or cells: HEK293F (Human 293F FreeStyle) cells
T1 sequence (Q99NF1 1-532): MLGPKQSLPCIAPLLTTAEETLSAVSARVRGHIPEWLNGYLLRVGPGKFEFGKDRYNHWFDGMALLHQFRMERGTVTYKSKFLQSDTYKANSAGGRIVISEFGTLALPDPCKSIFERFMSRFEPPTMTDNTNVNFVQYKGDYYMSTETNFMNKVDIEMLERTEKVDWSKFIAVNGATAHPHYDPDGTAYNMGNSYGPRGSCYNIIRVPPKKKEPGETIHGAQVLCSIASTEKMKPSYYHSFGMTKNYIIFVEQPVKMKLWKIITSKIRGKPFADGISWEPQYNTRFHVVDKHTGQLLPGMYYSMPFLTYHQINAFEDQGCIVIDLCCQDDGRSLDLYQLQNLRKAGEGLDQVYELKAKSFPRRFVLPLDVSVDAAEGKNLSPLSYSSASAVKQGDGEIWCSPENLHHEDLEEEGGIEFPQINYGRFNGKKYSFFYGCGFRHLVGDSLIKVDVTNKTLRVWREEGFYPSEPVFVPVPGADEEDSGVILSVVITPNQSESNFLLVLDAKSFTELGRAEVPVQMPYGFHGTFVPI

mBCO2 [2] = target: T1, mBCO2; conditions: earlier work [34]; cited from earlier work
mBCO2 [3] = target: T1, mBCO2; test: Acyl-RAC assay of mBCO2 palmitoylation in HEK293F cells; type: cell-based; conditions: for mBCO2 palmitoylation (protein band in HAM-treated sample): HEK293F cells, 5 h
Experimental: previously published protocol. Briefly, a typical transfection experiment used 3×10^7 cells in 28 mL of FreeStyle medium mixed with 2 mL of OptiMem-I reduced serum medium containing 40 μL 293fectin transfection reagent (Invitrogen) and 20 μg of each expression plasmid under study. Cells were grown with shaking at 125 rpm on an orbital shaker platform in a 37° C. incubator with a humidified atmosphere of 8% CO2 for 48 h total. In total, 200 μl of vesicles with xanthophylls were added, incubating for 5 hr under standard growth conditions.
For cell lysis and the Acyl-RAC assay, the same protocol as previously described in detail, with slight modifications, was used. BCO2-overexpressing HEK293F cells were washed with 1X-PBS and resuspended in lysis buffer (50 mM HEPES (pH 7.4) containing 150 mM NaCl, 5 mM EDTA, 1% glycerol, and 1× complete protease inhibitor cocktail (Roche Diagnostics)). Resuspended cells were lysed using N2 cavitation followed by centrifugation at 900×g for 10 min at 4° C. to remove the cell debris and nuclei. The clarified supernatant was then subjected to centrifugation at 20,000×g for 30 min at 4° C. to obtain heavy membrane (mitochondrial) pellet and post-mitochondrial supernatant (light membrane and cytosol) fractions. Typically, a 1000 μg amount of resuspended heavy membrane pellet protein (resuspended in lysis buffer containing 0.1% Triton X-100) was used for palmitoylation detection assay. Briefly, free cysteine sulfhydryl (—SH) groups were blocked with 0.5% (v/v) S-methyl methanethiosulfonate (MMTS) containing blocking buffer for 15 min at 40 ° C. The blocked protein samples were then subjected to acetone protein precipitation. The protein pellet was then resuspended in 550 μl 100 mM HEPES containing 5 mM EDTA and 1% SDS (v/v). The samples were then divided into two 250 μl aliquots (containing 400 μg protein amount) and the remaining 50 μl was used as an input. The samples were treated with 250 mM hydroxylamine (NH2OH, HAM) or control (250 mM NaCl). To capture proteins with free —SH groups, each sample was mixed with 10 mg activated thiol-sepharose 4B beads (Sigma) and incubated for 2 h at room temperature with continuous end-over-end rotation. After incubation, the beads were washed, and bound proteins were eluted by boiling the beads with an aliquot of 50 μL elution sample buffer. The input and eluted fractions from “HAM” and “control” samples were separated by SDS-PAGE and analyzed by Western blotting.
(§1) It was previously established that mBCO2 in eukaryotic HEK293F cells is palmitoylated. […] Knowing that BCO2 cleaves xanthophylls, palmitoylation assays were ran to study the palmitoylation status of mBCO2 in the presence of xanthophylls. First, xanthophylls were attempted to be delivered with the detergent Tween 40 [50]. […] Therefore, a new method to deliver xanthophylls without detergents using unilamellar LUVs as described above was established. The content of xanthophylls in the HEK293F cells after 5 h of treatment was similar to a Tween 40 delivery system in ARPE-19 cells (1-2%) (FIG. 9A-9B). Subsequently, the acyl-RAC method was used as described previously. The membrane fraction of HEK293F cells expressing mBCO2 was subjected to treatment with hydroxylamine (+HAM) and an equal portion of the fraction was treated with 250 mM NaCl (−HAM) which served as control.

[4] = Spectroscopic (UV/Vis) determination of the concentration of xanthophylls in LUVs; type: physicochemical
Experimental: The concentrations of xanthophylls were measured using a 2 mm optical path quartz cell in an Agilent Cary 60 UV-Vis spectrophotometer. To measure the concentration of xanthophylls in LUVs, a 10 μL aliquot is mixed with 300 μL of DMF. Standards and samples were measured at least 3 times and the data were averaged.

mBCO2 [5] = target: T1, mBCO2; test: Immunocolocalization of mBCO2 in COS7 cells by confocal microscopy; type: cell-based; conditions: for percent of colocalization of mBCO2 with nuclear marker: 5 h, lutein 0.15 μM, violaxanthin 0.6 μM, compared with zeaxanthin 0.45 μM
Experimental: BCO2-overexpressing COS7 cells (1×10^6 cells/mL) seeded on poly L-lysine coated 18 mm coverslips were analyzed by immunofluorescence microscopy to determine the localization of BCO2 protein in different subcellular organelles as described previously. Briefly, COS7 cells were transfected with 20 μg of BCO2-Lumio V5 tag plasmid using Fugene® 6 transfection reagent (1:6 DNA: Fugene 6 ratio). After 43 h, BCO2-transfected cells were treated with substrate-encapsulated LUVs for 5 h. Fixed cells were immunostained with V5 monoclonal and polyclonal antibodies alone and together with primary antibodies specific for different subcellular organelles (ER (PDIA3), Golgi (MAN2A1), mitochondria (COX IV and HSP60), and peroxisomes (PMP70)), followed by Alexa fluorophore-conjugated secondary antibodies (Invitrogen). Cell nuclei were stained with DAPI (1 μg/μL solution; Sigma). Slides were then visualized with a Zeiss LSM 700 confocal microscope using a 40× oil immersion lens/1.4-NA and Zeiss ZEN software. Pearson's correlation coefficient values were determined for analysis of the co-localization of BCO2 protein and different organelles and represented as mean±standard deviation. For nuclear co-localization of BCO2 protein, the Pearson's correlation coefficient of BCO2 with DAPI-stained nuclei was measured using the results from three independent experiments: single labeling of BCO2 “alone”, double labeling of BCO2 with mitochondrial markers COX IV and HSP60. Results shown were typical of a minimum of three independent experiments with 5-10 fields of view containing on average 1-10 cells/field of view.
Next, BCO2 localization by immunofluorescence microscopy was examined using mBCO2 transfected COST cells with various organellar markers (for mitochondria, peroxisomes, endoplasmic reticulum (ER), and Golgi). It was confirmed that V5 tag antibodies recognize specifically mBCO2-V5 protein in transfected HEK293F cells (FIG. 12A-12F). For nuclear labeling, DAPI nuclear stain was used. […]

HEK293F cells = test: Tween 40 delivery: effect on HEK293F cells; type: cell-based, human; conditions: higher concentration of Tween 40 (0.1%)
Text: as §1

Compound: CC1=C(/C=C/C(C)=C/C=C/C(C)=C/C=C/C=C(C)/C=C/C=C(C)/C=C/C2=C(C)CCCC2(C)C)C(C)(C)CCC1 [β-carotene]
mBCO2 palmitoylation in presence of substrate (mBCO2 [1]): loses palmitoylation
mBCO2 colocalization with the nuclear DAPI stain (mBCO2 [2]): mBCO2 colocalization with the nuclear DAPI stain was observed

Compound: CC(/C=C/C=C(C)/C=C/[C@@]12O[C@]1(C)C[C@@H](O)CC2(C)C)=C\C=C\C=C(C)\C=C\C=C(C)\C=C\[C@@]12O[C@]1(C)C[C@@H](O)CC2(C)C [violaxanthin]
mBCO2 palmitoylation (protein band in HAM-treated sample) (mBCO2 [3]; 0.6 μM, DMPC/DMPS-encapsulated): residual mBCO2 palmitoylation is seen in some samples
final concentration of xanthophyll in LUVs measured by UV/Vis ([4]; DMPC/DMPS LUVs): 0.07 g/L
percent of colocalization of mBCO2 with nuclear marker (mBCO2 [5]): higher

Compound: Tween 40 [reference compound]
effect on mBCO2 membrane association in Acyl-RAC assay (mBCO2 [3]; lower concentration of Tween 40 (0.01%)): eluted mBCO2 from membranes during the Acyl-RAC assay even without hydroxylamine treatment
effect on HEK293F cells (HEK293F cells): led to HEK293F cell apoptosis

Now from value to compound, other results behind:

final concentration of xanthophyll in LUVs measured by UV/Vis ([4]; DMPC/DMPS LUVs): 0.0125 g/L
percent of colocalization of mBCO2 with nuclear marker (mBCO2 [5]): higher
Compound: CC1=C[C@H](O)CC(C)(C)[C@H]1/C=C/C(C)=C/C=C/C(C)=C/C=C/C=C(C)/C=C/C=C(C)/C=C/C1=C(C)C[C@@H](O)CC1(C)C [lutein]
mBCO2 palmitoylation (protein band in HAM-treated sample) (mBCO2 [3]; 0.06 μM lutein in DMPC/DMPS): no protein band was detected in the HAM-treated sample; also recorded: residual mBCO2 palmitoylation is seen in some samples
mBCO2 palmitoylation (protein band in HAM-treated sample) (mBCO2 [3]; 0.15 μM lutein in DMPC/DMPS): no protein band was detected in the HAM-treated sample
percent colocalization of BCO2 in the nucleus (mBCO2 [5]; lower concentration of lutein (0.06 μM) versus 0.15 μM): decreased in a lutein concentration-dependent manner

final concentration of xanthophyll in LUVs measured by UV/Vis ([4]; DMPC/DMPS LUVs): 0.14 g/L
final concentration of xanthophyll in LUVs measured by UV/Vis ([4]; DPPC/DPPS LUVs): 0.038 g/L
Compound: CC1=C(/C=C/C(C)=C/C=C/C(C)=C/C=C/C=C(C)/C=C/C=C(C)/C=C/C2=C(C)C[C@@H](O)CC2(C)C)C(C)(C)C[C@H](O)C1 [zeaxanthin]
mBCO2 palmitoylation (protein band in HAM-treated sample) (mBCO2 [3]; 0.45 μM, DPPC/DPPS-encapsulated): residual mBCO2 palmitoylation is seen in some samples
